This assay deals with Jurkat. Description: CellTiter-Glo Luminescent Cell Viability Assay, half inhibitory concentration (IC50) on tumor cell proliferation. Type of assay: cell-based. The conditions noted are these: Homo sapiens, Jurkat cells, 72 h treatment. The method, then:
The tumor cells used herein were cultured in a cell culture medium at 37° C. in an incubator with 5% CO2, where the cell culture medium was supplemented with 10% FBS, as well as penicillin at a final concentration of 100 U/mL and streptomycin at a final concentration of 100 μg/mL. Prior to experimentation, all cells used were identified as correct cells by STR cells, and were negative for mycoplasma through routine testing.
IC50 values of the compounds of the present disclosure (including the compounds in Table 1 and compounds of examples) were measured using the CellTiter-Glo® Luminescent Cell Viability Assay kit from Promega Corporation. Assay details are as follows: Cells were seeded in 100 μL RPMI1640 medium containing serum at a density of 20,000 cells/well. After 24 h, the inoculated cells were treated with the compounds of the present disclosure which were serially diluted. After the cells were treated with the compounds of the present disclosure for 72 h, the CellTiter-Glo® reagent was added to the culture medium for cell viability assessment according to the instructions provided with the kit. DMSO served as the negative control, and FK866 inhibitor was used as the positive control, both treated with the same protocol as the compounds of the present disclosure. The growth inhibition of the compounds of the present disclosure on cells was plotted by Prism Graphpad software, and the IC50 values of the compounds of the present disclosure were calculated therefrom.
On the technique in general: Cellular ATP, detected with luciferase, serves as a proxy for viable cell number.
`O=C(/C=C/c1cccnc1)NCCCCC1CCN(C(=O)c2ccc(N3CCNCC3)cc2)CC1` [SIAIS630006, (E)-N-(4-(1-(4-(piperazin-1-yl)benzoyl)piperidin-4-yl)butyl)-3-(pyridin-3-yl)acrylamide] returned an IC50 of 3 nM.
For `Cc1ncsc1-c1ccc(CNC(=O)[C@@H]2C[C@@H](O)CN2C(=O)[C@@H](NC(=O)CCCCC(=O)N2CCN(c3ccc(C(=O)N4CCC(CCCCNC(=O)/C=C/c5cccnc5)CC4)cc3)CC2)C(C)(C)C)cc1` [SIAIS630007, (2S,4R)-1-((S)-3,3-dimethyl-2-(6-oxo-6-(4-(4-(4-(4-((E)-3-(pyridin-3-yl)acrylamido)butyl)piperidine-1-carbonyl)phenyl)piperazin-1-yl)hexanamido)butanoyl)-4-hydroxy-N-(4-(4-methylthiazol-5-yl)benzyl)pyrrolidine-2-carboxamide] the value was 109 nM; for `Cc1ncsc1-c1ccc(CNC(=O)[C@@H]2C[C@@H](O)CN2C(=O)[C@@H](NC(=O)CCCCCCCCCCCCCCC(=O)N2CCN(c3ccc(C(=O)N4CCC(CCCCNC(=O)/C=C/c5cccnc5)CC4)cc3)CC2)C(C)(C)C)cc1` [SIAIS630008, (2S,4R)-1-((S)-3,3-dimethyl-2-(16-oxo-16-(4-(4-(4-(4-((E)-3-(pyridin-3-yl)acrylamido)butyl)piperidine-1-carbonyl)phenyl)piperazin-1-yl)hexadecanamido)butanoyl)-4-hydroxy-N-(4-(4-methylthiazol-5-yl)benzyl)pyrrolidine-2-carboxamide], 96.2 nM; for `O=C(/C=C/c1cccnc1)NCCCCC1CCN(C(=O)c2ccc(N3CCN(C(=O)CCNc4cccc5c4C(=O)N(C4CCC(=O)NC4=O)C5=O)CC3)cc2)CC1` (stereo not drawn) [SIAIS630009, (E)-N-(4-(1-(4-(4-(3-((2-(2,6-dioxopiperidin-3-yl)-1,3-dioxoisoindolin-4-yl)amino)propanoyl)piperazin-1-yl)benzoyl)piperidin-4-yl)butyl)-3-(pyridin-3-yl)acrylamide], 2.29 nM.
For `O=C(/C=C/c1cccnc1)NCCCCC1CCN(C(=O)c2ccc(N3CCN(C(=O)CCCNc4cccc5c4C(=O)N(C4CCC(=O)NC4=O)C5=O)CC3)cc2)CC1` (stereo not drawn) [SIAIS630010, (E)-N-(4-(1-(4-(4-(4-((2-(2,6-dioxopiperidin-3-yl)-1,3-dioxoisoindolin-4-yl)amino)butanoyl)piperazin-1-yl)benzoyl)piperidin-4-yl)butyl)-3-(pyridin-3-yl)acrylamide] the value was 0.351 nM.
Compound `O=C(/C=C/c1cccnc1)NCCCCC1CCN(C(=O)c2ccc(N3CCN(C(=O)CCCCNc4cccc5c4C(=O)N(C4CCC(=O)NC4=O)C5=O)CC3)cc2)CC1` (stereo not drawn) [SIAIS630011, (E)-N-(4-(1-(4-(4-(5-((2-(2,6-dioxopiperidin-3-yl)-1,3-dioxoisoindolin-4-yl)amino)pentanoyl)piperazin-1-yl)benzoyl)piperidin-4-yl)butyl)-3-(pyridin-3-yl)acrylamide] had an IC50 of 2.85 nM.
For `O=C(/C=C/c1cccnc1)NCCCCC1CCN(C(=O)c2ccc(N3CCN(C(=O)CCCCCCNc4cccc5c4C(=O)N(C4CCC(=O)NC4=O)C5=O)CC3)cc2)CC1` (stereo not drawn) [SIAIS630012, (E)-N-(4-(1-(4-(4-(7-((2-(2,6-dioxopiperidin-3-yl)-1,3-dioxoisoindolin-4-yl)amino)heptanoyl)piperazin-1-yl)benzoyl)piperidin-4-yl)butyl)-3-(pyridin-3-yl)acrylamide] the value was 2.82 nM; for `O=C(/C=C/c1cccnc1)NCCCCC1CCN(C(=O)c2ccc(N3CCN(C(=O)CSc4cccc5c4CN(C4CCC(=O)NC4=O)C5=O)CC3)cc2)CC1` (stereo not drawn) [SIAIS630013, (E)-N-(4-(1-(4-(4-(2-((2-(2,6-dioxopiperidin-3-yl)-1-oxoisoindolin-4-yl)thio)acetyl)piperazin-1-yl)benzoyl)piperidin-4-yl)butyl)-3-(pyridin-3-yl)acrylamide], 190 nM.
For `O=C(/C=C/c1cccnc1)NCCCCC1CCN(C(=O)c2ccc(N3CCN(C(=O)CCCCSc4cccc5c4CN(C4CCC(=O)NC4=O)C5=O)CC3)cc2)CC1` (stereo not drawn) [SIAIS630014, (E)-N-(4-(1-(4-(4-(5-((2-(2,6-dioxopiperidin-3-yl)-1-oxoisoindolin-4-yl)thio)pentanoyl)piperazin-1-yl)benzoyl)piperidin-4-yl)butyl)-3-(pyridin-3-yl)acrylamide] the value was 1.99 nM; for `O=C(/C=C/c1cccnc1)NCCCCN1CCN(C(=O)c2ccc(N3CCNCC3)cc2)CC1` [SIAIS630020, (E)-N-(4-(4-(4-(piperazin-1-yl)benzoyl)piperazin-1-yl)butyl)-3-(pyridin-3-yl)acrylamide], 849 nM.
The figure for `O=C(/C=C/c1cccnc1)NCCCCC1CCN(C(=O)c2ccc(N3CCN(C(=O)CCCCCSc4cccc5c4CN(C4CCC(=O)NC4=O)C5=O)CC3)cc2)CC1` (stereo not drawn) [SIAIS630037, (E)-N-(4-(1-(4-(4-(6-((2-(2,6-dioxopiperidin-3-yl)-1-oxoisoindolin-4-yl)thio)hexanoyl)piperazin-1-yl)benzoyl)piperidin-4-yl)butyl)-3-(pyridin-3-yl)acrylamide] is 1.14 nM; for `O=C(/C=C/c1cccnc1)NCCCCC1CCN(C(=O)c2ccc(N3CCN(C(=O)COCCSc4cccc5c4CN(C4CCC(=O)NC4=O)C5=O)CC3)cc2)CC1` (stereo not drawn) [SIAIS630038, (E)-N-(4-(1-(4-(4-(2-(2-((2-(2,6-dioxopiperidin-3-yl)-1-oxoisoindolin-4-yl)thio)ethoxy)acetyl)piperazin-1-yl)benzoyl)piperidin-4-yl)butyl)-3-(pyridin-3-yl)acrylamide] it is 24.7 nM.
With `O=C(/C=C/c1cccnc1)NCCCCC1CCN(C(=O)c2ccc(N3CCN(C(=O)COCCOCCSc4cccc5c4CN(C4CCC(=O)NC4=O)C5=O)CC3)cc2)CC1` (stereo not drawn) [SIAIS630039, (E)-N-(4-(1-(4-(4-(2-(2-(2-((2-(2,6-dioxopiperidin-3-yl)-1-oxoisoindolin-4-yl)thio)ethoxy)ethoxy)acetyl)piperazin-1-yl)benzoyl)piperidin-4-yl)butyl)-3-(pyridin-3-yl)acrylamide], the half-inhibitory concentration (IC50) was found to be 7.96 nM.
The figure for `O=C(/C=C/c1cccnc1)NCCCCC1CCN(C(=O)c2ccc(N3CCN(CCCCC#Cc4cccc5c4CN(C4CCC(=O)NC4=O)C5=O)CC3)cc2)CC1` (stereo not drawn) [SIAIS630119, (E)-N-(4-(1-(4-(4-(6-(2-(2,6-dioxopiperidin-3-yl)-1-oxoisoindolin-4-yl)hex-5-yn-1-yl)piperazin-1-yl)benzoyl)piperidin-4-yl)butyl)-3-(pyridin-3-yl)acrylamide] is 2.99 nM; for `O=C(/C=C/c1cccnc1)NCCCCC1CCN(C(=O)c2ccc(N3CCN(CCCCCCCC#Cc4cccc5c4CN(C4CCC(=O)NC4=O)C5=O)CC3)cc2)CC1` (stereo not drawn) [SIAIS630122, (E)-N-(4-(1-(4-(4-(9-(2-(2,6-dioxopiperidin-3-yl)-1-oxoisoindolin-4-yl)non-8-yn-1-yl)piperazin-1-yl)benzoyl)piperidin-4-yl)butyl)-3-(pyridin-3-yl)acrylamide] it is 28.3 nM.
For `O=C(/C=C/c1cccnc1)NCCCCC1CCN(C(=O)c2ccc(N3CCN(CCCCSc4cccc5c4CN(C4CCC(=O)NC4=O)C5=O)CC3)cc2)CC1` (stereo not drawn) [SIAIS630123, (E)-N-(4-(1-(4-(4-(4-((2-(2,6-dioxopiperidin-3-yl)-1-oxoisoindolin-4-yl)thio)butyl)piperazin-1-yl)benzoyl)piperidin-4-yl)butyl)-3-(pyridin-3-yl)acrylamide] the value was 2.52 nM; for `O=C(/C=C/c1cccnc1)NCCCCC1CCN(C(=O)c2ccc(N3CCN(CCCC#Cc4cccc5c4CN(C4CCC(=O)NC4=O)C5=O)CC3)cc2)CC1` (stereo not drawn) [SIAIS630129, (E)-N-(4-(1-(4-(4-(5-(2-(2,6-dioxopiperidin-3-yl)-1-oxoisoindolin-4-yl)pent-4-yn-1-yl)piperazin-1-yl)benzoyl)piperidin-4-yl)butyl)-3-(pyridin-3-yl)acrylamide], 2.93 nM; for `O=C(/C=C/c1cccnc1)NCCCCC1CCN(C(=O)c2ccc(N3CCN(CCSc4cccc5c4CN(C4CCC(=O)NC4=O)C5=O)CC3)cc2)CC1` (stereo not drawn) [SIAIS630130, (E)-N-(4-(1-(4-(4-(2-((2-(2,6-dioxopiperidin-3-yl)-1-oxoisoindolin-4-yl)thio)ethyl)piperazin-1-yl)benzoyl)piperidin-4-yl)butyl)-3-(pyridin-3-yl)acrylamide], 24.2 nM.
`O=C(/C=C/c1cccnc1)NCCCCC1CCN(C(=O)c2ccc(N3CCN(CCCSc4cccc5c4CN(C4CCC(=O)NC4=O)C5=O)CC3)cc2)CC1` (stereo not drawn) [SIAIS630131, (E)-N-(4-(1-(4-(4-(3-((2-(2,6-dioxopiperidin-3-yl)-1-oxoisoindolin-4-yl)thio)propyl)piperazin-1-yl)benzoyl)piperidin-4-yl)butyl)-3-(pyridin-3-yl)acrylamide] displayed an IC50 of 4.38 nM. Against the preceding compound, the IC50 is about 5.5-fold lower.
The compound `O=C(/C=C/c1cccnc1)NCCCCC1CCN(C(=O)c2ccc(N3CCN(CCCCCSc4cccc5c4CN(C4CCC(=O)NC4=O)C5=O)CC3)cc2)CC1` (stereo not drawn) [SIAIS630132, (E)-N-(4-(1-(4-(4-(5-((2-(2,6-dioxopiperidin-3-yl)-1-oxoisoindolin-4-yl)thio)pentyl)piperazin-1-yl)benzoyl)piperidin-4-yl)butyl)-3-(pyridin-3-yl)acrylamide] registered a concentration for half-maximal inhibition (IC50) of 6.29 nM.
Compound `O=C(/C=C/c1cccnc1)NCCCCC1CCN(C(=O)c2ccc(N3CCN(CCCCCCSc4cccc5c4CN(C4CCC(=O)NC4=O)C5=O)CC3)cc2)CC1` (stereo not drawn) [SIAIS630133, (E)-N-(4-(1-(4-(4-(6-((2-(2,6-dioxopiperidin-3-yl)-1-oxoisoindolin-4-yl)thio)hexyl)piperazin-1-yl)benzoyl)piperidin-4-yl)butyl)-3-(pyridin-3-yl)acrylamide] gave a concentration for half-maximal inhibition (IC50) of 6.37 nM. The IC50 values of the last two compounds are within 1.5-fold of each other.

The IC50 is the point on the concentration scale where inhibition reaches its midpoint.

Values taken from US20250144223A1, “PROTEIN DEGRADATION COMPOUND BASED ON NAMPT TARGET PROTEIN AND APPLICATION THEREOF” (GLUETACS THERAPEUTICS (SHANGHAI) CO., LTD., priority 2021, published 2025).
